How the values were obtained:
[1] = target: BACE1 (Homo sapiens, UniProt P56817); test: In vitro enzymatic BACE FRET assay; format: biochemical; details: beta secretase enzyme 0.2 nM, FRET substrate 50 nM, pH 4.2; read-out: BACE1 FRET assay (IC50 class)
Protocol: In Vitro Enzymatic BACE FRET (Fluorescence Resonance Energy Transfer) Assay (Enzyme Assay Data in Table 1)
The assay buffer used in this screen is 0.05 M acetate, pH 4.2, 10% DMSO final, 100 uM genapol (which is a nonionic detergent, below its Critical Micelle Concentration). The beta secretase enzyme (0.2 nM) is pre-incubated for one hour with inhibitors, typically in about 1 uL of DMSO according to a serial dilution, are added thereto. The assay is effectively started by the addition of FRET substrate (50 nM) and the combination is incubated for one hour. The FRET assay is terminated with by addition of Tris buffer, which raises the pH to neutrality, and the fluorescence is determined. The FRET substrate is a peptide with commercially available fluorophore and quencher, on opposite sides of the BACE cleavage site. Proteolytic cleavage of the FRET substrate releases quenching of fluorescence (excitation […] and […]).
Of the compounds tested, the in-vitro BACE FRET enzyme data for each of Examples 1-220, where available at the time of filing this application, is provided in Table 1.

[2] = test system: Aβ40 in conditioned medium of cells stably expressing Amyloid Precursor Protein (APP); test: In vitro BACE cell-based assay (HEK cell assay), Aβ40 sandwich ELISA; details: Homo sapiens, HEK293, 24 h, inhibition of Aβ40, 24 h incubation, read-out: HEK cell assay (IC50 class)
Protocol: In Vitro BACE Cell-Based Assay:
The cell-based assay measures inhibition or reduction of Aβ40 in conditioned medium of test compound treated cells expressing amyloid precursor protein.
Cells stably expressing Amyloid Precursor Protein (APP) were plated at a density of 40K cells/well in 96 well plates (Costar). The cells were cultivated for 24 hours at 37° C. and 5% CO2 in DMEM supplemented with 10% FBS. The test compounds were then added to cells in 10-point dose response concentrations with the starting concentration being either 100 μM or 10 μM. The compounds were diluted from stock solutions in DMSO and the final DMSO concentration of the test compounds on cells was 0.1%. After 24 h of incubation with the test compounds the supernatant conditioned media was collected and the Aβ 40 levels were determined using a sandwich ELISA. The IC50 of the compound was calculated from the percent of control or percent inhibition of Aβ 40 as a function of the concentration of the test compound.
The sandwich ELISA to detect Aβ 40 was performed in 96 well microtiter plates, which were pre-treated with goat anti-rabbit IgG (Pierce). The capture and detecting antibody pair that were used to detect Aβ 40 from cell supernatants were affinity purified pAb40 (Biosource) and biotinylated 6E10 (Signet Labs Inc.), respectively. The optimal concentration for the pAb40 antibody was 3 μg/ml in Superblock/TBS (Pierce) that was supplemented with 0.05% Tween 20 (Sigma). Optimal concentration for the detection antibody 6E10-biotinylated was 0.5 μg/ml in Superblock/TBS (Pierce) that had been supplemented with 2% normal goat serum and 2% normal mouse serum.
Cellular supernatants were incubated with the capture antibody for 3 h at 4° C., followed by 3 wash steps in TBS-tween (0.05%). The detecting antibody incubation was for 2 h at 4° C., again followed by the wash steps as described previously. The final readout of the ELISA is Time-Resolved Fluorescence (counts per minute) using Delfia reagents Streptavidin-Europium and Enhancement solutions (Perkin Elmer) and the Victor 2 multilabel counter (Perkin Elmer).

BACE1, sequence (P56817 46-501, species assumed): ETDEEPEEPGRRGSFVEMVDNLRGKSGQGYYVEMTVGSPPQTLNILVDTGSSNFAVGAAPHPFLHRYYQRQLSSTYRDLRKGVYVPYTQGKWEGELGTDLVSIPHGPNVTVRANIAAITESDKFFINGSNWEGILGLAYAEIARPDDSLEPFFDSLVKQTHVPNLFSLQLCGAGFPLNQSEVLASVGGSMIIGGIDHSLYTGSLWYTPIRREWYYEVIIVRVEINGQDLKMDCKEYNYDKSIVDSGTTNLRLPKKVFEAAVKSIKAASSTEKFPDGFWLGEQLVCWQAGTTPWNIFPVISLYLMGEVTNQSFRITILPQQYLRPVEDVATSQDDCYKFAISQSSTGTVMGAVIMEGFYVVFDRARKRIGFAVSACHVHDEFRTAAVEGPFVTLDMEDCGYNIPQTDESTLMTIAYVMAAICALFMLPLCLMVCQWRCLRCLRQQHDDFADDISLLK

| SMILES | IC50 [1] [nM] | IC50 [2] [nM] |
| --- | --- | --- |
| Cc1cccc(N2CCOCC2=O)c1-c1ccc2nc(N)c(N3CCOCC3)cc2c1 [Example 48, 4-(2-(2-amino-3-morpholinoquinolin-6-yl)-3-methylphenyl)morpholin-3-one] | 501 to 1000 | 1010 to 5000 |
| Cc1cccc(C(=O)C2CC2)c1-c1ccc2nc(N)c(N3CCOCC3)cc2c1 [Example 186, (2-(2-amino-3-morpholinoquinolin-6-yl)-3-methylphenyl)(cyclopropyl)methanone] | 100 to 500 | 1010 to 5000 |
| Cc1cccc(C(=O)N2CCCC2)c1-c1ccc2nc(N)c(C3CCCO3)cc2c1 (stereo not shown) [Example 207, (2-(2-amino-3-(tetrahydrofuran-2-yl)quinolin-6-yl)-3-methylphenyl)(pyrrolidin-1-yl)methanone] | 100 to 500 | 1010 to 5000 |
| COCCN(C)C(=O)c1cccc(C)c1-c1ccc2nc(N)c(N3CCOCC3)cc2c1 [Example 71, 2-(2-amino-3-morpholinoquinolin-6-yl)-N-(2-methoxyethyl)-N,3-dimethylbenzamide] | 100 to 500 | 1010 to 5000 |
| COC[C@H]1CCCN1C(=O)c1cccc(C)c1-c1ccc2nc(N)c(N3CCOCC3)cc2c1 [Example 70, (R)-(2-(2-amino-3-morpholinoquinolin-6-yl)-3-methylphenyl)(2-(methoxymethyl)pyrrolidin-1-yl)methanone] | 100 to 500 | 1010 to 5000 |
| Cc1cccc(N(C)C(=O)CC(C)(C)C)c1-c1ccc2nc(N)c(N3CCOCC3)cc2c1 [Example 50, N-(2-(2-amino-3-morpholinoquinolin-6-yl)-3-methylphenyl)-N,3,3-trimethylbutanamide] | 501 to 1000 | 1010 to 5000 |
| COc1ccccc1C(=N)c1cccc(C)c1-c1ccc2nc(N)c(N3C[C@@H]4C[C@H]3CO4)cc2c1 [Example 188, 3-((1S,4S)-2-oxa-5-azabicyclo[2.2.1]heptan-5-yl)-6-(2-(imino(2-methoxyphenyl)methyl)-6-methylphenyl)quinolin-2-amine] | 100 to 500 | 501 to 1000 |

More lines, now with the values ahead:

| IC50 [1] [nM] | IC50 [2] [nM] | SMILES |
| --- | --- | --- |
| < 100 | < 100 | Cc1cccc(C(=O)N2CCCC2)c1-c1ccc2nc(N)c(N3C[C@@H]4C[C@H]3CO4)cc2c1 [Example 56, (2-(2-amino-3-((1S,4S)-2-oxa-5-azabicyclo[2.2.1]heptan-5-yl)quinolin-6-yl)-3-methylphenyl)(pyrrolidin-1-yl)methanone] |
| 100 to 500 | 1010 to 5000 | Nc1nc2ccc(-c3ccccc3C(=O)N3CCCC3)cc2cc1N1CCOCC1 [Example 146, (2-(2-amino-3-morpholinoquinolin-6-yl)phenyl)(pyrrolidin-1-yl)methanone] |
| < 100 | < 100 | CC(C)(C)CCc1cccc(C(=O)N2CCOCC2)c1-c1ccc2nc(N)c(N3CCOCC3)cc2c1 [Example 163, (2-(2-amino-3-morpholinoquinolin-6-yl)-3-(3,3-dimethylbutyl)phenyl)(morpholino)methanone] |
| < 100 | 100 to 500 | COCCC1CN(c2cc3cc(-c4c(C)cccc4C(=O)N4CCCC4)ccc3nc2N)CCO1 (stereo not shown) [Example 214, (2-(2-amino-3-(2-(2-methoxyethyl)morpholino)quinolin-6-yl)-3-methylphenyl)(pyrrolidin-1-yl)methanone] |
| < 100 | 501 to 1000 | Cc1cccc(C(=O)N2CCCC(F)(F)C2)c1-c1ccc2nc(N)c(N3CCOCC3)cc2c1 [Example 97, (2-(2-amino-3-morpholinoquinolin-6-yl)-3-methylphenyl)(3,3-difluoropiperidin-1-yl)methanone] |
| < 100 | 501 to 1000 | C#CCN(C)C(=O)c1cccc(C)c1-c1ccc2nc(N)c(N3CCOCC3)cc2c1 [Example 108, 2-(2-amino-3-morpholinoquinolin-6-yl)-N,3-dimethyl-N-(prop-2-ynyl)benzamide] |
| < 100 | 100 to 500 | CC(C)(C)CC(=O)c1cccc(C(=O)N2CCCC2)c1-c1ccc2nc(N)c(N3CCOCC3)cc2c1 [Example 46, 1-(2-(2-amino-3-morpholinoquinolin-6-yl)-3-(pyrrolidine-1-carbonyl)phenyl)-3,3-dimethylbutan-1-one] |

From US8735384B2, “Amino heteroaryl compounds as beta-secretase modulators and methods of use” (Amgen Inc., priority 2010, dated 2014)
